Test results: US20260015574A1, “METHODS FOR SHORTENING LAG PHASE DURATION IN MICROORGANISMS” (YEDA RESEARCH AND DEVELOPMENT CO. LTD., priority 2022, published 2026)

Tests used:
[1] = test system: Phaeobacter inhibens DSM 17395; assay: Growth / lag phase shortening assay of P. inhibens pure cultures with glucose; type: cell-based
Procedure: ASW was adjusted to pH 8 using HCl. If not otherwise stated, the medium was further supplemented with a source of carbon (glucose, 1 mM), nitrogen (NH4Cl, 5 mM), and sulfur (Na2SO4, 33 mM), referred to as ASW+CNS. […] A 96-well Tecan Infinite M Plex plate reader was used for high-resolution monitoring of bacterial growth dynamics at 30° C. An ImageStreamX Flow Imager system (Amnis) was used to characterize bacterial populations during the lag phase (FIG. 6). The growth of bacteria in co-culture with algae was monitored by counting colony forming units (CFU) on ½ YTSS agar plates. The growth of algae was monitored with a CellStream flow cytometer (Merck, Darmstadt, Germany).
To test whether methylated compounds affect the growth of bacteria, the inventors cultivated bacterial pure cultures with glucose as main growth substrate and supplemented the medium with the well-studied methylated compound dimethylsulfoniopropionate (DMSP). DMSP that is naturally produced by microalgae and found in detectable levels in seawater, is known to be metabolized by various bacteria. […] To quantify the lag phase shortening effect, the inventors calculated the Δlag time, which is the time difference between the commence of exponential growth in control cultures compared to treated cultures (FIG. 5B).
To reflect the natural low bacterial abundance in the oligotrophic ocean with low microalgal productivity, the current bacterial growth experiments were routinely initiated with an optical density (OD) of 0.00001. Such low initial ODs challenge the detection of cell divisions that occur prior to reaching an OD of at least 0.001, which is the theoretical limit of detection. To determine the actual length of the lag phase, the inventors analyzed bacterial cultures using imagining flow cytometry.

P. inhibens = assay: Imaging flow cytometry of bacterial populations during the lag phase; type: cell-based, Phaeobacter inhibens; settings: DMSP-treated cultures
Procedure: The bacterial strain Phaeobacter inhibens DSM 17395 was purchased from the German collection of microorganisms and cell cultures (DSMZ, Braunschweig, Germany) and stored at −80° C. with 20% glycerol. Routine cultivation of P. inhibens was conducted at 30° C. in artificial seawater medium (ASW) based on Goyet and Poisson (1989). […] A 96-well Tecan Infinite M Plex plate reader was used for high-resolution monitoring of bacterial growth dynamics at 30° C. […] The growth of bacteria in co-culture with algae was monitored by counting colony forming units (CFU) on ½ YTSS agar plates. The growth of algae was monitored with a CellStream flow cytometer (Merck, Darmstadt, Germany).
To reflect the natural low bacterial abundance in the oligotrophic ocean with low microalgal productivity, the current bacterial growth experiments were routinely initiated with an optical density (OD) of 0.00001. […] To determine the actual length of the lag phase, the inventors analyzed bacterial cultures using imagining flow cytometry. […]

P. inhibens Δbmt mutant = assay: Growth and lag phase shortening in Δbmt mutant; type: cell-based, Phaeobacter inhibens; settings: 2 μM DMSP, minimal media with or without 200 μM methionine
Procedure: For creation of P. inhibens knockout cells, ˜1,000 bp regions upstream and downstream of the gene of interest were amplified by PCR (Phusion High-Fidelity DNA polymerase, Thermo Scientific), using primers that added homologous regions to gentamycin or kanamycin resistance markers. The fragments were assembled and cloned into the TOPOII vector (Invitrogen) using restriction-free cloning (Peleg Y. & Unger T., 2014), generating a knockout (KO) plasmid. P. inhibens electrocompetent cells (300 μl) were transformed with 10 μg of the constructed KO plasmid by a pulse of 1.8 kV (Bio Rad). Cells were selected on ½YTSS agar plates containing 30 μg/ml gentamycin or 150 μg/ml kanamycin. Successful knockouts in single cell clones were verified by PCR and sanger sequencing.

[2] = test system: marine bacterium Vibrio sp.; assay: Lag phase shortening in Vibrio sp.; type: cell-based; settings: 2 μM compound
Procedure: The bacterial strain Phaeobacter inhibens DSM 17395 was purchased from the German collection of microorganisms and cell cultures (DSMZ, Braunschweig, Germany) and stored at −80° C. with 20% glycerol. Routine cultivation of P. inhibens was conducted at 30° C. in artificial seawater medium (ASW) based on Goyet and Poisson (1989). The ASW medium contained mineral salts (NaCl, 409.41 mM; Na2SO4, 28.22 mM; KCl, 9.08 mM; KBr, 0.82 mM; NaF, 0.07 mM; Na2CO3, 0.20 mM; NaHCO3, 2 mM; MgCl2, 50.66 mM; SrCl2, 0.09 mM), L1 vitamins (thiamine HCl, 100 μg/L; biotin, 0.5 μg/L; vitamin B12, […]), L1 trace elements (Na2EDTA·2H2O, 4.36 mg/L; FeCl3·6H2O, 3.15 mg/L; MnCl2·4H2O, 178.1 μg/L; ZnSO4·7H2O, 23.0 μg/L; CoCl2·6H2O, 11.9 μg/L; CuSO4·5H2O, 2.5 μg/L; Na2MoO4·2H2O, 19.9 μg/L; H2SeO3, 1.29 μg/L; NiSO4·6H2O, 2.63 μg/L; Na3 VO4, 1.84 μg/L; K2CrO4, 1.94 μg/L), and L1 nutrients (NaNO3, 882 μM; NaH2PO4, 36.22 μM). ASW was adjusted to pH 8 using HCl. […] A 96-well Tecan Infinite M Plex plate reader was used for high-resolution monitoring of bacterial growth dynamics at 30° C. […] The growth of bacteria in co-culture with algae was monitored by counting colony forming units (CFU) on ½ YTSS agar plates. The growth of algae was monitored with a CellStream flow cytometer (Merck, Darmstadt, Germany). […]

[3] = artificial seawater medium, 1 mM glucose, micromolar DMSP

C[S+](C)CCC(=O)[O-] [DMSP, dimethylsulfoniopropionate]
amount of DMSP per cell corresponding to the minimal effective concentration ([1]; 2 nM DMSP per 25,000 cells/mL): 80 amol
lag phase shortening in the presence of TMP ([1]; 2 μM DMSP, culture with TMP supplemented with nucleotides): still elicited lag phase shortening
growth rate [1, 3]: not affected
lag time [1, 3]: the lag time was shortened
lag phase shortening effect under salt stress ([1]; high salt conditions (FIG. 19A)): enhance the lag phase shortening effect
growth of the bacterium ([1]; micromolar concentrations of DMSP, glucose as main growth substrate): stimulate the growth of the bacterium
minimal DMSP concentration that triggered a significant lag phase shortening ([1]; per 25,000 cells/mL (OD 0.00001), glucose as main carbon source): 2 nM
lag phase shortening effect under temperature stress ([1]; temperatures that deviate from the 30° C. optimum (FIG. 19B)): enhance the lag phase shortening effect
time at which transition from aggregates to single-celled bacteria is concluded (P. inhibens): 3 h
lag phase shortening (P. inhibens Δbmt mutant): did not induce lag phase shortening
lag phase shortening [2]: induction of the lag phase shortening
